# Measurements as given in publication PMC9821961, “Ring-Modified Histidine-Containing Cationic Short Peptides Exhibit Anticryptococcal Activity by Cellular Disruption” (Molecules, 2022).
# Where two headings read alike, the source gives them in different places.
# Tests used:
# [1] = test system: C. krusei; assay: microbe, parasite or virus in culture; assay type: cell-based, Candida krusei
# From the text: (§1) Microbial strains: Microbial strains were procured from National Culture Collection of Pathogenic Fungi (NCCPF) at the Postgraduate Institute of Medical Education & Research (PGIMER), Chandigarh and Microbial Type Culture Collection and Gene bank (MTCC) at the Institute of Microbial Technology (IMTECH), Chandigarh, India. Peptides were screened against five different strains of fungi: viz. Candida albicans (NCCPF400034), Candida glabrata (MTCC 3019), Candida parapsilosis (NCCPF 440002), Candida krusei (NCCPF 440002) and Cryptococcus neoformans (NCCPF250316), and five strains of bacteria: viz. Escherichia coli (MTCC 2961), Staphylococcus aureus (MTCC 3160), Enterococcus faecalis (MTCC 439), Streptococcus pyogenes (MTCC 442) and Pseudomonas aeruginosa (MTCC 3542).
# (§2) Growth media: Antifungal susceptibility testing was carried out using standard broth microdilution assays as per the Clinical and Laboratory Standards Institute (CLSI) guidelines for fungi. RPMI 1640 (Sigma), yeast extract, peptone and dextrose (YPED, Himedia) were used as the incubation broths. The cells were diluted to a cell density of 10^3 colony forming unit (CFU/mL) and incubated at 30 °C for 48 h. Furthermore, Muller Hinton (Himedia) media was utilized for bacterial strains and antibacterial activity was evaluated per CLSI guidelines for bacteria. Bacterial cells were diluted to a cell density of 10^5 CFU/mL and incubated at 37 °C for 24 h. Amphotericin B (Himedia, India) and rifampicin (Himedia, India) were used as standard drugs for the evaluation of activity against all the fungal and bacterial strains, respectively.
# (§3) The stock solutions of peptides (2 mg/mL) were prepared in DMSO. Specific amounts of peptide from stock solution were added to a 96-well microtiter plate containing 100 μL of growth media and then serially diluted two-fold. A further 100 μL of growth media containing microbial cells were added to each well and incubated at 30–37 °C for 24–48 h. The optical density (OD) was measured at 600 nm using a BioStack Ready (BioTek Instruments, Winooski, VT, USA) microplate reader to analyze microbial growth inhibition, and IC50 and MIC values were calculated. To visualize the growth and inhibition pattern, a solution of 3-(4,5-dimethylthiazol-2-yl)-2,5-diphenyltetrazolium bromide (MTT) in water was added to the plate and incubated for 2–3 h. MTT reacts with the mitochondrial dehydrogenases, which are present only in a viable cell, to give blue colored formazan crystals. Therefore, a darker color indicates a high number of viable cells; however, non-viable cells appear pale or colorless.
# [2] = test system: C. neoformans cells; assay: CLSM FITC-labeled peptide uptake assay; assay type: cell-based, Cryptococcus neoformans; details: FITC-tagged peptide, 12 h
# Description: After incubation, cells were harvested by centrifugation at 2000× g for 10 min at 4 °C and suspended in PBS and mounted on a slide for visualization under a confocal microscope with excitation and emission wavelengths of 488 nm and 515 nm, respectively.
# [3] = test system: C. glabrata; assay: microbe, parasite or virus in culture; assay type: cell-based, Candida glabrata
# From the text: as §1, §2, §3
# [4] = test system: C. neoformans; assay: microbe, parasite or virus in culture; assay type: cell-based, Cryptococcus neoformans
# From the text: as §1, §2, §3
# [5] = test system: C. parapsilosis; assay: microbe, parasite or virus in culture; assay type: cell-based, Candida parapsilosis
# From the text: as §1, §2, §3
# [6] = test system: C. albicans; assay: microbe, parasite or virus in culture; assay type: cell-based, Candida albicans
# From the text: as §1, §2, §3
# [7] = test system: Cryptococcal cells; assay: microbe, parasite or virus in culture; details: Cryptococcus neoformans, read-out: MIC Alone
# [8] = test system: Cryptococcal cells
# [9] = test system: C. neoformans cells; assay: Time kill assay; details: time-kill profile over 24 h
structure (smiles),measurement,setting,value
COC(=O)[C@H](Cc1ncn(Cc2ccc([N+](=O)[O-])cc2)c1I)NC(=O)[C@@H](N)Cc1c[nH]c2ccccc12 [10h],IC50,[1]; 48 h,>35.2 µg/mL
same,MIC,[1]; 48 h,>64.0 µg/mL
same,Fluorescence of cells incubated with FITC-labeled peptide (CLSM),[2],did not show any fluorescence
same,IC50,[3]; 48 h,>35.2 µg/mL
same,MIC,[3]; 48 h,>64.0 µg/mL
same,MIC,[4]; 48 h,>64.0 µg/mL
same,IC50,[5]; 48 h,>35.2 µg/mL
same,MIC,[5]; 48 h,>64.0 µg/mL
same,IC50,[6]; 48 h,>35.2 µg/mL
same,MIC,[6]; 48 h,>64.0 µg/mL
"C[C@@H]1[C@H](O)[C@@H](C)/C=C/C=C/C=C/C=C/C=C/C=C/C=C/[C@H](O[C@@H]2O[C@H](C)[C@@H](O)[C@H](N)[C@@H]2O)C[C@@H]2O[C@](O)(C[C@@H](O)C[C@@H](O)[C@H](O)CC[C@@H](O)C[C@@H](O)CC(=O)O[C@H]1C)C[C@H](O)[C@H]2C(=O)O [Amphotericin B, reference compound]",IC50,"[1]; Pichia kudriavzevii, C. krusei, read-out: IC50",0.36 µg/mL
same,MIC,"[1]; Pichia kudriavzevii, C. krusei, read-out: MIC",0.72 µg/mL
same,IC50,"[3]; Nakaseomyces glabratus, C. glabrata, read-out: IC50",0.18 µg/mL
same,MIC,"[3]; Nakaseomyces glabratus, C. glabrata, read-out: MIC",0.36 µg/mL
same,IC50,"[4]; Cryptococcus neoformans, C. neoformans, concentration that leads to ~50% inhibition of growth, read-out: IC50",0.5 µg/mL
same,MIC,"[4]; Cryptococcus neoformans, C. neoformans, lowest test concentration with no detectable growth, read-out: MIC",1 µg/mL
same,IC50,"[5]; Lodderomyces parapsilosis, C. parapsilosis, read-out: IC50",0.36 µg/mL
same,MIC,"[5]; Lodderomyces parapsilosis, C. parapsilosis, read-out: MIC",0.72 µg/mL
same,MIC,[7],1 µg/mL
same,Effect,[8]; combination 10o + Amp B,Synergistic
same,FICI,[8]; combination 10o + Amp B,0.31
same,Fold Decrease in MIC,[8]; combination 10o + Amp B,4
same,MIC In Combination,[8]; combination 10o + Amp B,0.250 µg/mL
same,Effect,[8]; combination 10d + Amp B,Synergistic
same,FICI,[8]; combination 10d + Amp B,0.18
same,Fold Decrease in MIC,[8]; combination 10d + Amp B,8
same,MIC In Combination,[8]; combination 10d + Amp B,0.125 µg/mL
same,IC50,"[6]; Candida albicans, C. albicans, read-out: IC50",0.36 µg/mL
same,MIC,"[6]; Candida albicans, C. albicans, read-out: MIC",0.72 µg/mL
same,Time after which growth/CFUs of cryptococcal cells dropped or were inhibited,[9],4 h
"OC(Cn1cncn1)(Cn1cncn1)c1ccc(F)cc1F [Flu, fluconazole]",MIC,[7],10 µg/mL
same,Effect,[8]; combination 10o + Flu,Additive
same,FICI,[8]; combination 10o + Flu,1.00
same,Fold Decrease in MIC,[8]; combination 10o + Flu,2
same,MIC In Combination,[8]; combination 10o + Flu,5.0 µg/mL
same,Effect,[8]; combination 10d + Flu,Synergistic
same,FICI,[8]; combination 10d + Flu,0.19
same,Fold Decrease in MIC,[8]; combination 10d + Flu,16
same,MIC In Combination,[8]; combination 10d + Flu,0.625 µg/mL
same,Fold Decrease in MIC,"[8]; combination 10d + Flu, listed as fluconazole",approx. 16
same,MIC Alone,"[8]; cryptococcal cells, agent alone",10.0 µg/mL
